Reference: US7582649B2, “Hydroxy alkyl substituted 1,3,8-triazaspiro[4.5]decan-4-one derivatives useful for the treatment of ORL-1 receptor mediated disorders” (Janssen Pharmaceutica, NV, priority 2002, dated 2009)
Where “and” joins values, the source holds several entries; their conditions need not be identical. Identical values can stand only once. Like-named read-outs stand apart in the source and are kept apart here.

Tests used:
mu opioid receptor = mu opioid receptor (Homo sapiens, UniProt P35372); assay: Filtration binding assay: mu opioid receptor
mu opioid receptor, sequence (P35372 whole entry): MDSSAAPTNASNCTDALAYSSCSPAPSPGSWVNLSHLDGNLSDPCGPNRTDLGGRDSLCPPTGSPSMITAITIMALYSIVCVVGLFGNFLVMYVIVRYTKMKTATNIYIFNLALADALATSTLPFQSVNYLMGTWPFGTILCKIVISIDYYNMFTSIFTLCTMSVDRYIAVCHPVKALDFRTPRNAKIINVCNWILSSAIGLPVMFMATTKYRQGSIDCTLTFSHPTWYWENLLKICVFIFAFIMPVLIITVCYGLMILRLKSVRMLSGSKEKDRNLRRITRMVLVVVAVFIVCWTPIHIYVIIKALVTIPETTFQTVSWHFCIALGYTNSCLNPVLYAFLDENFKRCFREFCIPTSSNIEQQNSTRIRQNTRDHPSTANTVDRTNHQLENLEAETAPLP

kappa opioid receptor = kappa opioid receptor (Homo sapiens, UniProt P41145); assay: Filtration binding assay: kappa opioid receptor
kappa opioid receptor, sequence (P41145 whole entry): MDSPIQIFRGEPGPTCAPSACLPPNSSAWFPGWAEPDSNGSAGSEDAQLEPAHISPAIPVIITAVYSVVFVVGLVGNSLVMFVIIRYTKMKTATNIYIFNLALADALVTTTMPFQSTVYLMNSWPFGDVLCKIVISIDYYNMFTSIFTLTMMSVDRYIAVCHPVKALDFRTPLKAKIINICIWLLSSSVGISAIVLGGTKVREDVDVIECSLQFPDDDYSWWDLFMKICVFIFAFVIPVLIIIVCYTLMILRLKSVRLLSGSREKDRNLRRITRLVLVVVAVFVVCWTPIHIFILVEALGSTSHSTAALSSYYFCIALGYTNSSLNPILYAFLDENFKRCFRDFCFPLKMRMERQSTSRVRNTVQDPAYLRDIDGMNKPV

Long-Evans Hooded rats [1] = assay: Stress induced hyperthermia (SIH) in vivo assay, rectal temperature; set-up: species or system rat
Protocol: (§1) Male Long-Evans Hooded rats weighing 180 to 200 grams at the time of purchase were obtained from Charles River Laboratories (Raleigh, N.C.). Upon arrival, the animals were group housed four per cage in quarantine for 5 days in wire-mesh cages at an ambient temperature of 21 to 23° C. with an automated 12/12 hour light/dark cycle and ad libitum access to water and a commercial rodent chow. The rats were then transferred to a general housing room for a one-week acclimation with housing and environmental conditions, and 12/12 hour light/dark cycle conditions. Animals were fasted overnight (18 hours) prior to experiment.
[…] One hour after dosing, baseline rectal temperatures were recorded for each rat. Rats were then immediately isolated in shoebox cages with ALPHA-DRY bedding. Rectal temperatures were then recorded at 15 min, 30 min, and 45 min after isolation (i.e., 1 hr 15 min, 1 hr 30 min, and 1 hr 45 minutes after test compound or vehicle administration). All experiments were conducted during the light cycle. After completion of the behavioral portion of the study, each animal was killed via decapitation using a guillotine and trunk blood was collected in 5 mL vacutainer tube containing EDTA and placed on ice. The samples were then centrifuged at 3800 RPM for 10 minutes and plasma was removed and placed on dry ice in an Eppendorff sample tube. Plasma samples were stored at −80° C. and later used for determining ACTH, corticosterone, and glucose levels. Plasma samples were outsourced to Anilytics, Inc. for determination of plasma levels of ACTH, coricosterone, and glucose. A Mann-Whitney U t-test (one-tailed) was used for statistical analysis of behavioral data and an unpaired t-test (one-tailed) was used for analysis of plasma ACTH, corticosterone, and glucose levels.
Compound #438 was suspended in an aqueous vehicle comprised of 0.5% (w/v) methylcellulose (15 centipoises) solution.

Long-Evans Hooded rats [2] = assay: Plasma stress hormone levels (ACTH, corticosterone, glucose) after SIH; assay type: in vivo, rat; conditions: p.o.
Protocol: as §1
On the day of experiment, group-housed (4/group) Long-Evans Hooded rats were divided into various treatment groups (N=8 to 32) and test compound at 0.03-3.0 mg/kg or vehicle was administered orally (p.o.) by gavage in a dose volume equivalent to 5 mL/kg. One hour after dosing, baseline rectal temperatures were recorded for each rat. Rats were then immediately isolated in shoebox cages with ALPHA-DRY bedding. Rectal temperatures were then recorded at 15 min, 30 min, and 45 min after isolation (i.e., 1 hr 15 min, 1 hr 30 min, and 1 hr 45 minutes after test compound or vehicle administration). All experiments were conducted during the light cycle. […]

Long-Evans Hooded rats [3] = conditions: rat, in vivo, po; for Total Entries (EPM), % Change / Total Entries (EPM), Mean: male, Long-Evans Hooded
Long-Evans Hooded rats [4] = conditions: male, rat, in vivo, po

With `Cc1cccc2cccc(CN3CCC4(CC3)C(=O)N(C[C@H](O)CN)CN4c3ccc(F)cc3)c12` [Compound #438, 3-(3-Amino-2-(R)-hydroxy-propyl)-1-(4-fluoro-phenyl)-8-(8-methyl-naphthalen-1-ylmethyl)-1,3,8-triaza-spiro[4.5]decan-4-one] the IC50 (mu opioid receptor) was > 10 µM, the IC50 (kappa opioid receptor) was > 10 µM and the “Rectal Temp., Mean” value (Long-Evans Hooded rats [1]; 0.03 mg/kg p.o., 0 (Basal), 1 hr after dosing) was 37.5 °C. For the same compound, the “Rectal Temp., Mean” value (Long-Evans Hooded rats [1]; 0.03 mg/kg p.o., 15 min after isolation) was 38.7 °C, the “Rectal Temp., Mean” value (Long-Evans Hooded rats [1]; 0.03 mg/kg p.o., 30 min after isolation) was 38.6 °C and the “Rectal Temp., Mean” value (Long-Evans Hooded rats [1]; 0.03 mg/kg p.o., 45 min after isolation) was 38.4 °C. For the same compound, the “Rectal Temp., Mean” value (Long-Evans Hooded rats [1]; 0.1 mg/kg p.o., 0 (Basal), 1 hr after dosing) was 37.2 °C, the “Rectal Temp., Mean” value (Long-Evans Hooded rats [1]; 0.1 mg/kg p.o., 15 min after isolation) was 38.4 °C and the “Rectal Temp., Mean” value (Long-Evans Hooded rats [1]; 0.1 mg/kg p.o., 30 min after isolation) was 38.5 °C. For the same compound, the “Rectal Temp., Mean” value (Long-Evans Hooded rats [1]; 0.1 mg/kg p.o., 45 min after isolation) was 38.5 °C, the “Rectal Temp., Mean” value (Long-Evans Hooded rats [1]; 0.3 mg/kg p.o., 0 (Basal), 1 hr after dosing) was 37.4 °C and the “Rectal Temp., Mean” value (Long-Evans Hooded rats [1]; 0.3 mg/kg p.o., 15 min after isolation) was 38.4 °C. For the same compound, the “Rectal Temp., Mean” value (Long-Evans Hooded rats [1]; 0.3 mg/kg p.o., 30 min after isolation) was 38.5 °C, the “Rectal Temp., Mean” value (Long-Evans Hooded rats [1]; 0.3 mg/kg p.o., 45 min after isolation) was 38.3 °C and the “Rectal Temp., Mean” value (Long-Evans Hooded rats [1]; 1.0 mg/kg p.o., 0 (Basal), 1 hr after dosing) was 37.1 °C. For the same compound, the “Rectal Temp., Mean” value (Long-Evans Hooded rats [1]; 1.0 mg/kg p.o., 15 min after isolation) was 38.4 °C, the “Rectal Temp., Mean” value (Long-Evans Hooded rats [1]; 1.0 mg/kg p.o., 30 min after isolation) was 38.5 °C and the “Rectal Temp., Mean” value (Long-Evans Hooded rats [1]; 1.0 mg/kg p.o., 45 min after isolation) was 38.2 °C. For the same compound, the “Rectal Temp., Mean” value (Long-Evans Hooded rats [1]; 3.0 mg/kg p.o., 0 (Basal), 1 hr after dosing) was 37.0 °C, the “Rectal Temp., Mean” value (Long-Evans Hooded rats [1]; 3.0 mg/kg p.o., 15 min after isolation) was 38.2 °C and the “Rectal Temp., Mean” value (Long-Evans Hooded rats [1]; 3.0 mg/kg p.o., 30 min after isolation) was 38.4 °C. For the same compound, the “Rectal Temp., Mean” value (Long-Evans Hooded rats [1]; 3.0 mg/kg p.o., 45 min after isolation) was 38.2 °C, the “rectal temperature in the SIH model” value (Long-Evans Hooded rats [1]; p.o., at 0.03 mg/kg, 0.01 mg/kg, 0.3 mg/kg, 1.0 mg/kg and 3.0 mg/kg) was “attenuation of rectal temperature” and the “changes in the plasma levels of corticosterone” value (Long-Evans Hooded rats [2]) was “not statistically significant”. For the same compound, the “reduction in plasma ACTH levels” value (Long-Evans Hooded rats [2]; 0.3 mg/kg, P=0.0170) was 25%, the “Total Entries (EPM), % Change” value (Long-Evans Hooded rats [3]; 0.03 mg/kg) was 1.0% and the “Total Entries (EPM), Mean” value (Long-Evans Hooded rats [3]; 0.03 mg/kg) was 102.0. The “Total Entries (EPM), % Change” value (Long-Evans Hooded rats [3]; 10 mg/kg) was −6.4%, the “Total Entries (EPM), Mean” value (Long-Evans Hooded rats [3]; 10 mg/kg) was 94.5 and the “Total Entries (EPM), % Change” value (Long-Evans Hooded rats [3]; 30 mg/kg) was −14.6%. The “Total Entries (EPM), Mean” value (Long-Evans Hooded rats [3]; 30 mg/kg) was 86.3, the “% Open Arm Entries (EPM), % Change” value (Long-Evans Hooded rats [3]; 0.03 mg/kg) was −11.1% and the “% Open Arm Entries (EPM), Mean” value (Long-Evans Hooded rats [3]; 0.03 mg/kg) was 5.14%. For the same compound, the “% Open Arm Time (EPM), % Change” value (Long-Evans Hooded rats [3]; 0.03 mg/kg) was −18.8%, the “% Open Arm Time (EPM), Mean” value (Long-Evans Hooded rats [3]; 0.03 mg/kg) was 6.67% and the “% Open Arm Entries (EPM), % Change” value (Long-Evans Hooded rats [3]; 0.1 mg/kg) was 34.4% and 40.4%. For the same compound, the “% Open Arm Entries (EPM), Mean” value (Long-Evans Hooded rats [3]; 0.1 mg/kg) was 7.77% and 9.17%, the “% Open Arm Time (EPM), Mean” value (Long-Evans Hooded rats [3]; 0.1 mg/kg) was 12.1% and 17.2% and the “% Open Arm Entries (EPM), % Change” value (Long-Evans Hooded rats [3]; 0.3 mg/kg) was 54.8% and 80.7%. For the same compound, the “% Open Arm Entries (EPM), Mean” value (Long-Evans Hooded rats [3]; 0.3 mg/kg) was 8.95% and 11.8%, the “% Open Arm Time (EPM), Mean” value (Long-Evans Hooded rats [3]; 0.3 mg/kg) was 13.8% and 21.8% and the “% Open Arm Entries (EPM), % Change” value (Long-Evans Hooded rats [3]; 1 mg/kg) was 72.1% and 46.6%. For the same compound, the “% Open Arm Entries (EPM), Mean” value (Long-Evans Hooded rats [3]; 1 mg/kg) was 9.95% and 9.57%, the “% Open Arm Time (EPM), % Change” value (Long-Evans Hooded rats [3]; 1 mg/kg) was 80.3% and 89.7% and the “% Open Arm Time (EPM), Mean” value (Long-Evans Hooded rats [3]; 1 mg/kg) was 14.8% and 15.1%. For the same compound, the “% Open Arm Entries (EPM), % Change” value (Long-Evans Hooded rats [3]; 3 mg/kg) was 44.3% and 37.8%, the “% Open Arm Entries (EPM), Mean” value (Long-Evans Hooded rats [3]; 3 mg/kg) was 8.34% and 9.0% and the “% Open Arm Time (EPM), Mean” value (Long-Evans Hooded rats [3]; 3 mg/kg) was 12.4% and 16.9%. For the same compound, the “% Open Arm Entries (EPM), % Change” value (Long-Evans Hooded rats [3]; 10 mg/kg) was 11.1%, the “% Open Arm Entries (EPM), Mean” value (Long-Evans Hooded rats [3]; 10 mg/kg) was 6.4% and the “% Open Arm Time (EPM), % Change” value (Long-Evans Hooded rats [3]; 10 mg/kg) was 0.9%. The “% Open Arm Time (EPM), Mean” value (Long-Evans Hooded rats [3]; 10 mg/kg) was 8.14%, the “% Open Arm Entries (EPM), % Change” value (Long-Evans Hooded rats [3]; 30 mg/kg) was 15.1% and the “% Open Arm Entries (EPM), Mean” value (Long-Evans Hooded rats [3]; 30 mg/kg) was 6.65%. The “% Open Arm Time (EPM), % Change” value (Long-Evans Hooded rats [3]; 30 mg/kg) was −60.9%, the “% Open Arm Time (EPM), Mean” value (Long-Evans Hooded rats [3]; 30 mg/kg) was 3.21% and the “Horizontal Activity (SMA), % Change” value (Long-Evans Hooded rats [4]; 0.03 mg/kg) was 9.9%. For the same compound, the “Horizontal Activity (SMA), Mean” value (Long-Evans Hooded rats [4]; 0.03 mg/kg) was 3565, the “Vertical Movement (SMA), % Change” value (Long-Evans Hooded rats [4]; 0.03 mg/kg) was 12.5% and the “Vertical Movement (SMA), Mean” value (Long-Evans Hooded rats [4]; 0.03 mg/kg) was 54.8. For the same compound, the “Horizontal Activity (SMA), % Change” value (Long-Evans Hooded rats [4]; 10 mg/kg) was −4.0%, the “Horizontal Activity (SMA), Mean” value (Long-Evans Hooded rats [4]; 10 mg/kg) was 3115 and the “Vertical Movement (SMA), % Change” value (Long-Evans Hooded rats [4]; 10 mg/kg) was 11.9%. The “Vertical Movement (SMA), Mean” value (Long-Evans Hooded rats [4]; 10 mg/kg) was 54.5, the “Horizontal Activity (SMA), % Change” value (Long-Evans Hooded rats [4]; 30 mg/kg) was −15.8% and the “Horizontal Activity (SMA), Mean” value (Long-Evans Hooded rats [4]; 30 mg/kg) was 2730. The “Vertical Movement (SMA), % Change” value (Long-Evans Hooded rats [4]; 30 mg/kg) was −7.0% and the “Vertical Movement (SMA), Mean” value (Long-Evans Hooded rats [4]; 30 mg/kg) was 45.3.
